Results as given in ChEMBL document CHEMBL1155836, “Discovery of imidazole carboxamides as potent and selective CCK1R agonists” (Bioorg Med Chem Lett, 2008).
pEC50, pIC50: −log10 of the molar value. Calls of active or inactive are those of the source. The calls are words filed in the database; no cut-off is given here.

Test system: Mus musculus
Test: Reduction in overnight food intake in lean mouse at 0.3 mg/kg, po
Assay type: functional
Design: scale not given: the % may be the effect or the level left
Conditions: not given

SMILES	Activity [%]
CCOc1cccc(-n2cc(C(=O)N3CCN(c4cc(C(=O)O)c5ccccc5c4)CC3)nc2-c2ccc(C)cc2)c1.O=C(O)C(F)(F)F	18
O=C(O)C(F)(F)F.O=C(O)c1cc(N2CCN(C(=O)c3cn(-c4ccc5c(c4)OCCO5)c(-c4ccc(F)cc4)n3)CC2)cc2ccccc12	16
CCOc1cccc(-n2cc(C(=O)N3CCN(c4cc(C(=O)O)c5ccccc5c4)CC3)nc2-c2ccc(C)cc2F)c1.O=C(O)C(F)(F)F	13

Target: T1, Cholecystokinin receptor type A (Homo sapiens, UniProt P32238)
T1 sequence (P32238 whole entry): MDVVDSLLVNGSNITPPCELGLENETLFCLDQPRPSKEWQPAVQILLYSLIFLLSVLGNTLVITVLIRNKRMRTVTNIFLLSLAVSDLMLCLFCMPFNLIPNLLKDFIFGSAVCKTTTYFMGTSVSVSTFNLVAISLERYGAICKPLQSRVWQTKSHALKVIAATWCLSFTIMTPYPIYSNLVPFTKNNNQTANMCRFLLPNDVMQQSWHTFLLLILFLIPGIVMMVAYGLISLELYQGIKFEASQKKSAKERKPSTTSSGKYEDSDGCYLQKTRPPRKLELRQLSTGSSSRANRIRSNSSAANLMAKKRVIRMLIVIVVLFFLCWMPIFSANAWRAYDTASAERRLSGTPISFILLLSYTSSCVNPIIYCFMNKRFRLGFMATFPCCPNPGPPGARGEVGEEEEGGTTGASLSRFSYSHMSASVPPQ
Test: Inhibition of human CCK1 receptor
Conditions: not given

SMILES	pIC50
CCOc1cccc(-n2cc(C(=O)N3CCN(c4cc(C(=O)O)c5ccccc5c4)CC3)nc2-c2ccc(C)cc2F)c1	10.22
CCOc1cccc(-n2cc(C(=O)N3CCN(c4cnc5ccccc5c4)CC3)nc2-c2ccc(C)cc2F)c1	9.62
Cc1ccc(-c2nc(C(=O)N3CCN(c4cc(C(=O)O)c5ccccc5c4)CC3)cn2-c2ccc3c(c2)OCCO3)c(F)c1	10.52
Cc1ccc(-c2nc(C(=O)N3CCN(c4cc(C(=O)O)c5ccccc5c4)CC3)cn2-c2ccc3c(c2)OCCO3)cc1	9.85
O=C(c1cn(-c2ccc3c(c2)OCCO3)c(-c2ccc(F)cc2)n1)N1CCN(c2cnc3ccccc3c2)CC1	9.92
Cc1ccc(-c2nc(C(=O)N3CCN(c4cnc5ccccc5c4)CC3)cn2-c2ccc3c(c2)OCCO3)cc1	9.70
CCOc1cccc(-n2cc(C(=O)N3CCN(c4cnc5ccccc5c4)CC3)nc2-c2ccccc2F)c1	9.24
CCOc1cccc(-n2cc(C(=O)N3CCN(c4cc(C(=O)O)c5ccccc5c4)CC3)nc2-c2ccc(C)cc2)c1	9.92

Target: T2, Gastrin/cholecystokinin type B receptor (Homo sapiens) (UniProt P32239)
T2 sequence (whole entry): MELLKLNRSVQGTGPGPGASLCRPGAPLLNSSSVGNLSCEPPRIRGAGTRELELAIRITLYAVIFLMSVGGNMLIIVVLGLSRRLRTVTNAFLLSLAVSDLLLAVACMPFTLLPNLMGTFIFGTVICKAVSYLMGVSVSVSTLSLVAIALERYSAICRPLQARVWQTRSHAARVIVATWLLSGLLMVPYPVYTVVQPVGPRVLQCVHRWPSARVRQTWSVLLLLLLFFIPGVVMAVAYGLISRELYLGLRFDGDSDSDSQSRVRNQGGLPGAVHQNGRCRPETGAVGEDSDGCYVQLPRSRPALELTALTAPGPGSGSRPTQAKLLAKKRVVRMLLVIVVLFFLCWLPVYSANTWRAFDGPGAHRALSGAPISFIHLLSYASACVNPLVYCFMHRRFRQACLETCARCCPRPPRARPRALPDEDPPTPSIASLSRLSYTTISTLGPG
Test: Agonist activity against human CCK2 receptor assessed as receptor activation at 10000 nM
Assay type: functional
Conditions: not given

SMILES	Activity [%]
CCOc1cccc(-n2cc(C(=O)N3CCN(c4cnc5ccccc5c4)CC3)nc2-c2ccc(C)cc2F)c1	< 36
Cc1ccc(-c2nc(C(=O)N3CCN(c4cc(C(=O)O)c5ccccc5c4)CC3)cn2-c2ccc3c(c2)OCCO3)c(F)c1	< 36
Cc1ccc(-c2nc(C(=O)N3CCN(c4cc(C(=O)O)c5ccccc5c4)CC3)cn2-c2ccc3c(c2)OCCO3)cc1	< 36
O=C(c1cn(-c2ccc3c(c2)OCCO3)c(-c2ccc(F)cc2)n1)N1CCN(c2cnc3ccccc3c2)CC1	< 36
Cc1ccc(-c2nc(C(=O)N3CCN(c4cnc5ccccc5c4)CC3)cn2-c2ccc3c(c2)OCCO3)cc1	< 36
CCOc1cccc(-n2cc(C(=O)N3CCN(c4cnc5ccccc5c4)CC3)nc2-c2ccccc2F)c1	< 36

Target: Cholecystokinin receptor type A (Mus musculus, UniProt O08786)
Test: Agonist activity against mouse CCK1 receptor
Assay type: functional
Conditions: not given

Cholecystokinin receptor type A (Mus musculus, UniProt O08786), sequence (O08786 whole entry, looked up): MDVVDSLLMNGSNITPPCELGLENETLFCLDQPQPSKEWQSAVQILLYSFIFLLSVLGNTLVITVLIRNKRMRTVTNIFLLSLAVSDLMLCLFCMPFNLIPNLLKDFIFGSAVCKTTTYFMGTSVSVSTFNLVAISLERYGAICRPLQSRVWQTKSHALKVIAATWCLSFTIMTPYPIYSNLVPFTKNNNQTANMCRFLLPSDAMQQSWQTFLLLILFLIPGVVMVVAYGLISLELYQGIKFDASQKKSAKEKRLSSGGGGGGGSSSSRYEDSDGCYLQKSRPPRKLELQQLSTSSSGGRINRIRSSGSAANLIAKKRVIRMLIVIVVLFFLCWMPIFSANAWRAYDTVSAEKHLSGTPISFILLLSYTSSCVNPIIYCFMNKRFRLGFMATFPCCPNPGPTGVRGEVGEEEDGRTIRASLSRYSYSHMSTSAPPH

SMILES	pEC50
CCOc1cccc(-n2cc(C(=O)N3CCN(c4cc(C(=O)O)c5ccccc5c4)CC3)nc2-c2ccc(C)cc2)c1.O=C(O)C(F)(F)F	8.89
O=C(O)C(F)(F)F.O=C(O)c1cc(N2CCN(C(=O)c3cn(-c4ccc5c(c4)OCCO5)c(-c4ccc(F)cc4)n3)CC2)cc2ccccc12	9.85
CCOc1cccc(-n2cc(C(=O)N3CCN(c4cc(C(=O)O)c5ccccc5c4)CC3)nc2-c2ccc(C)cc2F)c1.O=C(O)C(F)(F)F	9.52

Target: T2, Gastrin/cholecystokinin type B receptor (Homo sapiens)
Test: Inhibition of human CCK2 receptor at 10000 nM
Conditions: not given

SMILES	inhibition [%]
CCOc1cccc(-n2cc(C(=O)N3CCN(c4cnc5ccccc5c4)CC3)nc2-c2ccc(C)cc2F)c1	< 24
Cc1ccc(-c2nc(C(=O)N3CCN(c4cc(C(=O)O)c5ccccc5c4)CC3)cn2-c2ccc3c(c2)OCCO3)c(F)c1	< 24
Cc1ccc(-c2nc(C(=O)N3CCN(c4cc(C(=O)O)c5ccccc5c4)CC3)cn2-c2ccc3c(c2)OCCO3)cc1	< 24
O=C(c1cn(-c2ccc3c(c2)OCCO3)c(-c2ccc(F)cc2)n1)N1CCN(c2cnc3ccccc3c2)CC1	< 24
Cc1ccc(-c2nc(C(=O)N3CCN(c4cnc5ccccc5c4)CC3)cn2-c2ccc3c(c2)OCCO3)cc1	< 24
CCOc1cccc(-n2cc(C(=O)N3CCN(c4cnc5ccccc5c4)CC3)nc2-c2ccccc2F)c1	< 24

Test system: Mus musculus
Test: Gallbladder emptying activity in mouse assessed as reduction of gallbladder weight at 0.001 mg/kg, po
Assay type: functional
Design: scale not given: the % may be the effect or the level left
Conditions: not given

SMILES	Activity [%]
CCOc1cccc(-n2cc(C(=O)N3CCN(c4cc(C(=O)O)c5ccccc5c4)CC3)nc2-c2ccc(C)cc2)c1.O=C(O)C(F)(F)F	72
O=C(O)C(F)(F)F.O=C(O)c1cc(N2CCN(C(=O)c3cn(-c4ccc5c(c4)OCCO5)c(-c4ccc(F)cc4)n3)CC2)cc2ccccc12	88
CCOc1cccc(-n2cc(C(=O)N3CCN(c4cc(C(=O)O)c5ccccc5c4)CC3)nc2-c2ccc(C)cc2F)c1.O=C(O)C(F)(F)F	77

Target: T1, Cholecystokinin receptor type A
Test: Agonist activity against human CCK1 receptor
Assay type: functional
Conditions: not given

SMILES	pEC50
CCOc1cccc(-n2cc(C(=O)N3CCN(c4cc(C(=O)O)c5ccccc5c4)CC3)nc2-c2ccc(C)cc2F)c1	10.25
CCOc1cccc(-n2cc(C(=O)N3CCN(c4cnc5ccccc5c4)CC3)nc2-c2ccc(C)cc2F)c1	9.89
Cc1ccc(-c2nc(C(=O)N3CCN(c4cc(C(=O)O)c5ccccc5c4)CC3)cn2-c2ccc3c(c2)OCCO3)c(F)c1	10.11
Cc1ccc(-c2nc(C(=O)N3CCN(c4cc(C(=O)O)c5ccccc5c4)CC3)cn2-c2ccc3c(c2)OCCO3)cc1	9.85
O=C(c1cn(-c2ccc3c(c2)OCCO3)c(-c2ccc(F)cc2)n1)N1CCN(c2cnc3ccccc3c2)CC1	9.59
Cc1ccc(-c2nc(C(=O)N3CCN(c4cnc5ccccc5c4)CC3)cn2-c2ccc3c(c2)OCCO3)cc1	9.92
CCOc1cccc(-n2cc(C(=O)N3CCN(c4cnc5ccccc5c4)CC3)nc2-c2ccccc2F)c1	9.28
CCOc1cccc(-n2cc(C(=O)N3CCN(c4cc(C(=O)O)c5ccccc5c4)CC3)nc2-c2ccc(C)cc2)c1	10.03

Test system: not listed separately
Test: Half life in mouse at 1.0 mg/kg, iv and 10 mg/kg, po
Assay type: ADME, organism-based
Conditions: in vivo

SMILES	half-life [h]
CCOc1cccc(-n2cc(C(=O)N3CCN(c4cc(C(=O)O)c5ccccc5c4)CC3)nc2-c2ccc(C)cc2F)c1	1.7
CCOc1cccc(-n2cc(C(=O)N3CCN(c4cc(C(=O)O)c5ccccc5c4)CC3)nc2-c2ccc(C)cc2)c1	3.5

Test system: not listed separately
Test: Cmax in mouse at 1.0 mg/kg, iv and 10 mg/kg, po
Assay type: ADME, organism-based
Conditions: in vivo

SMILES	Cmax [nM]
CCOc1cccc(-n2cc(C(=O)N3CCN(c4cc(C(=O)O)c5ccccc5c4)CC3)nc2-c2ccc(C)cc2F)c1	820
CCOc1cccc(-n2cc(C(=O)N3CCN(c4cc(C(=O)O)c5ccccc5c4)CC3)nc2-c2ccc(C)cc2)c1	280

Test system: not listed separately
Test: Volume of distribution in mouse at 1.0 mg/kg, iv and 10 mg/kg, po
Assay type: ADME, organism-based
Conditions: in vivo

SMILES	Vd [L/kg]
CCOc1cccc(-n2cc(C(=O)N3CCN(c4cc(C(=O)O)c5ccccc5c4)CC3)nc2-c2ccc(C)cc2F)c1	0.59
CCOc1cccc(-n2cc(C(=O)N3CCN(c4cc(C(=O)O)c5ccccc5c4)CC3)nc2-c2ccc(C)cc2)c1	0.47

Test system: not listed separately
Test: Clearance in mouse at 1.0 mg/kg, iv and 10 mg/kg, po
Assay type: ADME, organism-based
Conditions: in vivo

SMILES	clearance [mL/min/kg]
CCOc1cccc(-n2cc(C(=O)N3CCN(c4cc(C(=O)O)c5ccccc5c4)CC3)nc2-c2ccc(C)cc2F)c1	10.4
CCOc1cccc(-n2cc(C(=O)N3CCN(c4cc(C(=O)O)c5ccccc5c4)CC3)nc2-c2ccc(C)cc2)c1	5.3

Target: T2, Gastrin/cholecystokinin type B receptor (Homo sapiens)
Test: Agonist activity against human CCK2 receptor
Assay type: functional
Conditions: not given

SMILES	Activity
CCOc1cccc(-n2cc(C(=O)N3CCN(c4cnc5ccccc5c4)CC3)nc2-c2ccc(C)cc2F)c1	inactive
Cc1ccc(-c2nc(C(=O)N3CCN(c4cc(C(=O)O)c5ccccc5c4)CC3)cn2-c2ccc3c(c2)OCCO3)c(F)c1	inactive
Cc1ccc(-c2nc(C(=O)N3CCN(c4cc(C(=O)O)c5ccccc5c4)CC3)cn2-c2ccc3c(c2)OCCO3)cc1	inactive
O=C(c1cn(-c2ccc3c(c2)OCCO3)c(-c2ccc(F)cc2)n1)N1CCN(c2cnc3ccccc3c2)CC1	inactive
Cc1ccc(-c2nc(C(=O)N3CCN(c4cnc5ccccc5c4)CC3)cn2-c2ccc3c(c2)OCCO3)cc1	inactive
CCOc1cccc(-n2cc(C(=O)N3CCN(c4cnc5ccccc5c4)CC3)nc2-c2ccccc2F)c1	inactive

Target: T3, Gastrin/cholecystokinin type B receptor (Homo sapiens, UniProt P32239)
T3 sequence (P32239 whole entry): T2 sequence (whole entry)
Test: Inhibition of human CCK2 receptor
Conditions: not given

SMILES	pIC50
CCOc1cccc(-n2cc(C(=O)N3CCN(c4cc(C(=O)O)c5ccccc5c4)CC3)nc2-c2ccc(C)cc2F)c1	< 5.00
CCOc1cccc(-n2cc(C(=O)N3CCN(c4cnc5ccccc5c4)CC3)nc2-c2ccc(C)cc2F)c1	< 5.00
Cc1ccc(-c2nc(C(=O)N3CCN(c4cc(C(=O)O)c5ccccc5c4)CC3)cn2-c2ccc3c(c2)OCCO3)c(F)c1	< 5.00
Cc1ccc(-c2nc(C(=O)N3CCN(c4cc(C(=O)O)c5ccccc5c4)CC3)cn2-c2ccc3c(c2)OCCO3)cc1	< 5.00
O=C(c1cn(-c2ccc3c(c2)OCCO3)c(-c2ccc(F)cc2)n1)N1CCN(c2cnc3ccccc3c2)CC1	< 5.00
Cc1ccc(-c2nc(C(=O)N3CCN(c4cnc5ccccc5c4)CC3)cn2-c2ccc3c(c2)OCCO3)cc1	< 5.00
CCOc1cccc(-n2cc(C(=O)N3CCN(c4cnc5ccccc5c4)CC3)nc2-c2ccccc2F)c1	< 5.00
CCOc1cccc(-n2cc(C(=O)N3CCN(c4cc(C(=O)O)c5ccccc5c4)CC3)nc2-c2ccc(C)cc2)c1	< 5.00

Target: T4, Cholecystokinin receptor type A (Homo sapiens) (UniProt P32238)
T4 sequence (whole entry): T1 sequence (P32238 whole entry)
Test: Agonist activity against human CCK1 receptor assessed as receptor activation at 10000 nM
Assay type: functional
Conditions: not given

SMILES	Activity [%]
CCOc1cccc(-n2cc(C(=O)N3CCN(c4cnc5ccccc5c4)CC3)nc2-c2ccc(C)cc2F)c1	86
Cc1ccc(-c2nc(C(=O)N3CCN(c4cc(C(=O)O)c5ccccc5c4)CC3)cn2-c2ccc3c(c2)OCCO3)c(F)c1	71
Cc1ccc(-c2nc(C(=O)N3CCN(c4cc(C(=O)O)c5ccccc5c4)CC3)cn2-c2ccc3c(c2)OCCO3)cc1	107
O=C(c1cn(-c2ccc3c(c2)OCCO3)c(-c2ccc(F)cc2)n1)N1CCN(c2cnc3ccccc3c2)CC1	101
Cc1ccc(-c2nc(C(=O)N3CCN(c4cnc5ccccc5c4)CC3)cn2-c2ccc3c(c2)OCCO3)cc1	94
CCOc1cccc(-n2cc(C(=O)N3CCN(c4cnc5ccccc5c4)CC3)nc2-c2ccccc2F)c1	89

Test system: not listed separately
Test: Oral bioavailability in mouse at 10 mg/kg
Assay type: ADME, organism-based
Conditions: in vivo

SMILES	bioavailability [%]
CCOc1cccc(-n2cc(C(=O)N3CCN(c4cc(C(=O)O)c5ccccc5c4)CC3)nc2-c2ccc(C)cc2F)c1	22
CCOc1cccc(-n2cc(C(=O)N3CCN(c4cc(C(=O)O)c5ccccc5c4)CC3)nc2-c2ccc(C)cc2)c1	7

Test system: Mus musculus
Test: Reduction in overnight food intake in lean mouse at 3 mg/kg, po
Assay type: functional
Design: scale not given: the % may be the effect or the level left
Conditions: not given

SMILES	Activity [%]
CCOc1cccc(-n2cc(C(=O)N3CCN(c4cc(C(=O)O)c5ccccc5c4)CC3)nc2-c2ccc(C)cc2)c1.O=C(O)C(F)(F)F	82
O=C(O)C(F)(F)F.O=C(O)c1cc(N2CCN(C(=O)c3cn(-c4ccc5c(c4)OCCO5)c(-c4ccc(F)cc4)n3)CC2)cc2ccccc12	96
CCOc1cccc(-n2cc(C(=O)N3CCN(c4cc(C(=O)O)c5ccccc5c4)CC3)nc2-c2ccc(C)cc2F)c1.O=C(O)C(F)(F)F	86
